According to article PMC7503225, “Repositioning Dequalinium as Potent Muscarinic Allosteric Ligand by Combining Virtual Screening Campaigns and Experimental Binding Assays” (International Journal of Molecular Sciences, 2020):

What was measured:
[1] = ref DrugBank [16]; cited from earlier work
hM5 muscarinic receptor = molecular target: T1, hM5 muscarinic receptor (Homo sapiens, UniProt P08912); assay: Equilibrium inhibition binding with [3H]-NMS, CHO cell membranes; conditions: [3H]-NMS 0.2 nM, CHO membranes, mean ± SEM of 3-4 experiments; read-out: pKi hM5 (converted)
T1 construct: expressed in transfected cells; host or cells: CHO cells, stably transfected; membrane fractions
T1 sequence (P08912 1-532): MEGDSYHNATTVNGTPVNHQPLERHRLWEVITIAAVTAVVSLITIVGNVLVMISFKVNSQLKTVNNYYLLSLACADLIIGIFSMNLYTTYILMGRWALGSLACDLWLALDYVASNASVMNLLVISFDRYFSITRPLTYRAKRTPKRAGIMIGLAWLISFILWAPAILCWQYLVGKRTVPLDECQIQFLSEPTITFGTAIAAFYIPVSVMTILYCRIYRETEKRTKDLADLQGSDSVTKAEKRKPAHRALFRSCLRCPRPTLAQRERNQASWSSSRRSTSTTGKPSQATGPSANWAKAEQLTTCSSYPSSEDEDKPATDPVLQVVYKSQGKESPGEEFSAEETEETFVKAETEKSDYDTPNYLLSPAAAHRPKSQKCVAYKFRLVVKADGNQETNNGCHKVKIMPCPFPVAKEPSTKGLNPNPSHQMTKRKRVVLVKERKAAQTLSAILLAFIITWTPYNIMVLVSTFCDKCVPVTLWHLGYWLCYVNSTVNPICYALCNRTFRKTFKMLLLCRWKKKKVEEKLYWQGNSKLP
Method: (§1) All tested compounds were purchased from Merck KGaA (Darmstadt, Germany). The radioligand binding experiments were performed with membranes from Chinese Hamster Ovary (CHO) cells stably transfected with the five cloned human muscarinic receptor subtypes (hM1-5). Membrane fractions were prepared according to the protocol, which have been previously described; membranes were stored at −80 °C until use. Nonspecific binding was defined by the radioactivity bound in the presence of 10 µM atropine.
(§2) Aliquots of membranes (25–70 µg/mL) were added and incubated for 2 h at room temperature, filtered through UniFilter GF/B plates (PerkinElmer Life and Analytical Science, Monza, Italy) using a FilterMate cell harvester (PerkinElmer Life and Analytical Science, Monza, Italy). The filters were washed several times with ice-cold MilliQ water. Then, the plates were counted in a β-counter (TopCount NXT microplate scintillation counter, PerkinElmer Life and Analytical Science, Monza, Italy).
(§3) Data points from radioligand inhibition binding curve were fitted to models using nonlinear regression equation to determine inhibitor potency (IC50) estimates, which were then converted to Ki values as appropriate.
(§4) All the results are expressed as means ± SEM obtained from 3-4 independent experiments each one performed in duplicate.

hM3 muscarinic receptor = molecular target: T2, hM3 muscarinic receptor (Homo sapiens, UniProt P20309); assay: as above; conditions: [3H]-NMS 0.2 nM, mean ± SEM of 3-4 experiments, read-out: pKi hM3 (converted)
T2 construct: expressed in transfected cells; host or cells: CHO cells, stably transfected; membrane fractions
Method: as §1, §2, §3, §4

hM2 muscarinic receptor = molecular target: T3, hM2 muscarinic receptor (Homo sapiens, UniProt P08172); assay: as above; conditions: [3H]-NMS 0.2 nM, mean ± SEM of 3-4 experiments, read-out: pKi hM2 (converted)
T3 construct: expressed in transfected cells; host or cells: CHO cells, stably transfected; membrane fractions
T3 sequence (P08172 1-466): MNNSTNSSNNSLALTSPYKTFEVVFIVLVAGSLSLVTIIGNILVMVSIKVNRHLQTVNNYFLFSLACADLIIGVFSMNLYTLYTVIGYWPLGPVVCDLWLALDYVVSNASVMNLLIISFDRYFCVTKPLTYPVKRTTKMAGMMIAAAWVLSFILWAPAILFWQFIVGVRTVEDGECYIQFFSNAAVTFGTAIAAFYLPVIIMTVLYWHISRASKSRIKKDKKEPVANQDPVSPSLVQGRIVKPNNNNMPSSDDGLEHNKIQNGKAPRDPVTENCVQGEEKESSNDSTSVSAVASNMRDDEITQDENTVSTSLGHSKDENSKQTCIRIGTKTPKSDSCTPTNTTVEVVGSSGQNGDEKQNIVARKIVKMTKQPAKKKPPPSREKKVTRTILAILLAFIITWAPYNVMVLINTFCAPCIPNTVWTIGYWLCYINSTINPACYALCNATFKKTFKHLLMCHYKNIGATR
Method: as §1, §2, §3, §4

hM4 muscarinic receptor = molecular target: T4, hM4 muscarinic receptor (Homo sapiens, UniProt P08173); assay: as above; conditions: [3H]-NMS 0.2 nM, CHO membranes, mean ± SEM of 3-4 experiments; read-out: pKi hM4 (converted)
T4 construct: expressed in transfected cells; host or cells: CHO cells, stably transfected; membrane fractions
T4 sequence (P08173 1-479): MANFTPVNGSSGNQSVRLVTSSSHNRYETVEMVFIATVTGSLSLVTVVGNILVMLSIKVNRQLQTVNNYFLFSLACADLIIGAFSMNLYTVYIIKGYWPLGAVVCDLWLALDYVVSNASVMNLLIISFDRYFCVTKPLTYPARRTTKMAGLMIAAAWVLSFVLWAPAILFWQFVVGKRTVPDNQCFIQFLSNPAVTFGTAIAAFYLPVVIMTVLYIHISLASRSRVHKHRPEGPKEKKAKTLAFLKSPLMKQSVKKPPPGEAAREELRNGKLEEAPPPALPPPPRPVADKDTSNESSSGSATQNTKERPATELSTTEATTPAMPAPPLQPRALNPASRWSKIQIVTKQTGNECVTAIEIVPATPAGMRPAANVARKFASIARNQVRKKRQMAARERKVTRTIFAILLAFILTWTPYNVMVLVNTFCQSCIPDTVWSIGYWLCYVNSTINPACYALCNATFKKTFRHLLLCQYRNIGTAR
Method: as §1, §2, §3, §4

[2] = molecular target: T5, [3H]-NMS-occupied muscarinic hM5 subtype (Homo sapiens, UniProt P08912); assay: One point kinetic (off-rate) assay of [3H]-NMS dissociation; assay type: binding; conditions: read-out: log Kocc hM5 (converted)
T5 construct: expressed in transfected cells; host or cells: CHO cells, stably transfected; membrane fractions
T5 sequence (P08912 1-532): T1 sequence (P08912 1-532)
Method: as §1
Off-rate assays were performed as described elsewhere to estimate the affinity of the ligands for the [^3H]-NMS-occupied receptor (log Kocc). Briefly, a high concentration of membranes (about 0.1 mg/mL) was incubated with a high concentration of [^3H]-NMS (2 nM) for 60 min at room temperature (mix membrane). Next, 100 µL aliquots were distributed into polypropylene tubes that were empty or in a final volume of 1 mL binding buffer with 1 µM atropine alone and in the presence of a range of concentrations of tested compound (1 nM–0.1 mM).
The effect on the radioligand dissociation of each tested ligand was determined at 0 min and at one time point, which was chosen to be ca 2.5 dissociation half-lives of [^3H]-NMS alone from each subtype receptors. Later (80 min for hM1, 20 min for hM2 and 70 min for hM5), the samples were filtered and counted as previously reported. Non specific binding was measured as previously reported.
Data from one-point kinetic experiments were analyzed in order to obtain estimates of the affinity of an allosteric ligand for the [^3H]-NMS occupied receptor (log Kocc) in a single step, using an equation introduced in GraphPad Prism 5.02 [33, 34].
as §4

T2 sequence (P20309 whole entry): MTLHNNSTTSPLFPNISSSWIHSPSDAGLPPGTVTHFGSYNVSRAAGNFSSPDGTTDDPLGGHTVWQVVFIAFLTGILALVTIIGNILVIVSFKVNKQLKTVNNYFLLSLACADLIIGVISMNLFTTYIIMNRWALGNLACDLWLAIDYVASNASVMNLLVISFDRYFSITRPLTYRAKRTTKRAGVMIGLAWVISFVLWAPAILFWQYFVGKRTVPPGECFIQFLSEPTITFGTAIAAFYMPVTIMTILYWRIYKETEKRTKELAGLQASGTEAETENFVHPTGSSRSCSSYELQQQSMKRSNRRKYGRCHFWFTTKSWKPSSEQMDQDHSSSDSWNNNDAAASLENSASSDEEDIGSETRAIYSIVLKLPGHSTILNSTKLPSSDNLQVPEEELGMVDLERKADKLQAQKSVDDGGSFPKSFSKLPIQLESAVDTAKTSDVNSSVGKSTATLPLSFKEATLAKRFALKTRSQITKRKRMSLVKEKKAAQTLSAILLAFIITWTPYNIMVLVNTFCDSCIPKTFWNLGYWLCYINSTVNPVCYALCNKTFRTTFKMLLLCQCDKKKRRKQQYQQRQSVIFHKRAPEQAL

Cc1cc(N)c2ccccc2[n+]1CCCCCCCCCC[n+]1c(C)cc(N)c2ccccc21 [dequalinium]
logP [1]: 0.2 | Ki (hM5 muscarinic receptor): 158 nM | Ki (hM3 muscarinic receptor): 170 nM | Ki (hM2 muscarinic receptor): 661 nM | Ki (hM4 muscarinic receptor): 69.2 nM | Kd [2]: 3310 nM
